According to article PMC12267056 (Nature, 2025):
Positions count from the first letter of the chain named. Where “and” joins values, the source holds several entries; their conditions need not be identical. Equal values may be shown once. Read-outs that look alike come from different tables or passages of the source.

Columns and labels:
[1] = target: T1, human SLC35B1 (wild type) (Homo sapiens, UniProt P78383); assay: [3H]ADP/ATP exchange kinetics (Michaelis–Menten); format: biochemical; parameters: made in house; host or cells: Saccharomyces cerevisiae FGY217
T1 sequence (P78383 1-322): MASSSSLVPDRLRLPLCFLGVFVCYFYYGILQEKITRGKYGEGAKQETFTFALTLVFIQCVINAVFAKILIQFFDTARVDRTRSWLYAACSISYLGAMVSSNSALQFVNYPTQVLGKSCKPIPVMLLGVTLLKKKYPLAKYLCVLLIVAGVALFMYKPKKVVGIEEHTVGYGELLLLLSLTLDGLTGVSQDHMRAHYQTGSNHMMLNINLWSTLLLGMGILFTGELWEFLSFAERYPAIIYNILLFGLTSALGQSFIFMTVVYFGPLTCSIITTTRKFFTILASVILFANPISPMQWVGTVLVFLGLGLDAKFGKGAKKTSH

[2] = target: T1, human SLC35B1 (wild type); format: binding; parameters: made in house; host or cells: Saccharomyces cerevisiae FGY217; details: for ΔTm (average melting temperature increase): purified wild-type SLC35B1–GFP; for GFP fluorescence after heating (source data Fig 1B): 1 mM substrate
[3] = target: T1, human SLC35B1 (wild type); assay: STD NMR of nucleotide interaction with SLC35B1 proteoliposomes; format: binding; parameters: made in house; host or cells: Saccharomyces cerevisiae FGY217
[4] = target: T1, human SLC35B1 (wild type); assay: IC50 for competitive inhibition of [3H]ADP uptake in proteoliposomes; format: biochemical; parameters: made in house; host or cells: Saccharomyces cerevisiae FGY217
[5] = target: T2, SLC35B1-Fv-MBP fusion protein (Homo sapiens, UniProt P78383); assay: IC50 for ADP competition of [3H]-ADP/ATP transport, SLC35B1-Fv-MBP; format: biochemical; details: read-out: IC50, external ADP competition of [3H]-ADP/ATP transport; SLC35B1-Fv-MBP fusion protein in proteoliposomes
T2 construct: TEV site (C); GFP (C); His8 (C); made in house; host or cells: SLC35B1: Saccharomyces cerevisiae FGY217; Fv–MBP: Brevibacillus choshinensis (secreted)
T2 sequence (P78383 1-322): T1 sequence (P78383 1-322)

[6] = target: T1, human SLC35B1 (wild type); assay: Competitive uptake assay: [3H]ADP uptake with 1 mM cold nucleotide; format: biochemical; parameters: made in house; host or cells: Saccharomyces cerevisiae FGY217; details: competitor 1mM; sheet ED 6F; SLC35B1 proteoliposomes
[7] = target: T3, SLC35B1 Q190A (Homo sapiens, UniProt P78383, Q190A); details: variant Q190A; 1 mM ATP
T3 sequence (P78383 1-322 Q190A): T1 sequence (P78383 1-322) with Q190A

[8] = tested on: BiP; details: cited from earlier work
[9] = target: SLC35B1 R194A (Homo sapiens, UniProt P78383, R194A); details: variant R194A; 1 mM ATP
SLC35B1 R194A, sequence (P78383 whole entry R194A): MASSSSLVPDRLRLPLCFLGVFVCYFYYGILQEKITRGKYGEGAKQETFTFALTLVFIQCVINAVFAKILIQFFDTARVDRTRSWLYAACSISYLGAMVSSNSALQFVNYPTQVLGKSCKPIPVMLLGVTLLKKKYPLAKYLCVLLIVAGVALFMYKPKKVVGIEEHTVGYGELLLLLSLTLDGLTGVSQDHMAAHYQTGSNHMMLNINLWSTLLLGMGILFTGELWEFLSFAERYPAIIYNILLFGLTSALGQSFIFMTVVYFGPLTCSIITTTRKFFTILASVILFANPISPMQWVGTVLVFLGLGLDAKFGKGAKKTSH

[10] = target: T1, human SLC35B1 (wild type); details: single temperature 37 °C
[11] = target: T4, SLC35B1 R276A (Homo sapiens, UniProt P78383, R276A); details: variant R276A; 1 mM ATP
T4 sequence (P78383 1-322 R276A): T1 sequence (P78383 1-322) with R276A

[12] = target: T5, SLC35B1 Q113F (Homo sapiens, UniProt P78383, Q113F); details: variant Q113F; 1 mM ATP
T5 sequence (P78383 1-322 Q113F): T1 sequence (P78383 1-322) with Q113F

[13] = tested on: crude ER microsomes; details: read-out: Km for ATP import into crude ER microsomes; cited from earlier work
[14] = target: T6, SLC35B1 I257E (Homo sapiens, UniProt P78383, I257E); details: variant I257E; 37 °C
T6 sequence (P78383 1-322 I257E): T1 sequence (P78383 1-322) with I257E

[15] = target: T6, SLC35B1 I257E; details: variant I257E; 1 mM ATP
[16] = target: SLC35B1 T273A (Homo sapiens, UniProt P78383, T273A); details: variant T273A; 1 mM ATP
SLC35B1 T273A, sequence (P78383 whole entry T273A): as the sequence (P78383 whole entry R194A) above, with A194R, T273A counted along it

[17] = target: T4, SLC35B1 R276A; details: variant R276A; 37 °C
[18] = target: T7, SLC35B1 C269A (Homo sapiens, UniProt P78383, C269A); details: variant C269A; 37 °C
T7 sequence (P78383 1-322 C269A): T1 sequence (P78383 1-322) with C269A

[19] = target: SLC35B1 K120A (Homo sapiens, UniProt P78383, K120A); assay: biochemical; details: read-out: ΔTm, individual titrations (source data), variant K120A; 1 mM ATP
SLC35B1 K120A, sequence (P78383 whole entry K120A): as the sequence (P78383 whole entry R194A) above, with K120A, A194R counted along it

[20] = target: T8, SLC35B1 K277A (Homo sapiens, UniProt P78383, K277A); details: variant K277A; 1 mM ATP
T8 sequence (P78383 1-322 K277A): T1 sequence (P78383 1-322) with K277A

Nc1ncnc2c1ncn2[C@@H]1O[C@H](COP(=O)(O)OP(=O)(O)O)[C@@H](O)[C@H]1O [ADP]
ADP/ATP exchange initial rate ([1]; [ADP] 0.2): 18.1311 nmols / min* mg and 18.3179 nmols / min* mg and 18.8253 nmols / min* mg
ADP/ATP exchange initial rate ([1]; [ADP] 0.5): 28.9111 nmols / min* mg and 29.9816 nmols / min* mg and 28.6714 nmols / min* mg
ADP/ATP exchange initial rate ([1]; [ADP] 1): 44.617 nmols / min* mg and 42.2865 nmols / min* mg and 44.5891 nmols / min* mg
ADP/ATP exchange initial rate ([1]; [ADP] 5): 114.496 nmols / min* mg and 126.14 nmols / min* mg and 112.107 nmols / min* mg
ADP/ATP exchange initial rate ([1]; [ADP] 10): 156.88 nmols / min* mg and 168.644 nmols / min* mg and 150.078 nmols / min* mg
ADP/ATP exchange initial rate ([1]; [ADP] 20): 155.074 nmols / min* mg and 183.464 nmols / min* mg and 182.884 nmols / min* mg
ΔTm (average melting temperature increase) ([2]; 1 mM nucleotide): 5.3 °C
ΔTm, individual titrations (source data) ([2]; 1 mM nucleotide, wild-type SLC35B1–GFP): 5.49 and 5.09 and 5.45
GFP fluorescence after heating (source data Fig 1B) ([2]; temperature 4): 98.7528 and 95.6204 and 104.931 and 101.189 and 101.102 and 98.4048
GFP fluorescence after heating (source data Fig 1B) ([2]; temperature 10): 87.2672 and 91.8788 and 95.3593 and 107.889 and 92.923 and 94.9243
GFP fluorescence after heating (source data Fig 1B) ([2]; temperature 20): 90.7477 and 91.6178 and 91.1827 and 94.7503 and 88.9204 and 86.6668
GFP fluorescence after heating (source data Fig 1B) ([2]; temperature 30): 85.9881 and 86.4928 and 88.9204 and 91.0957 and 89.5295 and 91.7048
GFP fluorescence after heating (source data Fig 1B) ([2]; temperature 40): 42.8735 and 42.656 and 39.9412 and 40.3066 and 43.7088 and 44.6834
GFP fluorescence after heating (source data Fig 1B) ([2]; temperature 50): 5.748 and 5.6183 and 5.416 and 5.384 and 5.915 and 6.0377
GFP fluorescence after heating (source data Fig 1B) ([2]; temperature 60): 2.3127 and 2.334 and 2.351 and 2.357 and 2.381 and 2.422
GFP fluorescence after heating (source data Fig 1B) ([2]; temperature 70): 0.4378 and 0.4464 and 0.4526 and 0.4781 and 0.469 and 0.4867
1H integral (off-resonance spectrum) [3]: 1.99E+11
STD integral [3]: 3.67E+10
Normalized [3H]-ADP uptake activity (IC50 curve) ([4]; external cold nucleotide 0.01 uM): 93.6927 and 106.307 and 98.0637
Normalized [3H]-ADP uptake activity (IC50 curve) ([4]; external cold nucleotide 0.1 uM): 87.3862 and 98.7018 and 89.3272
Normalized [3H]-ADP uptake activity (IC50 curve) ([4]; external cold nucleotide 1 uM): 48.8239 and 76.0895 and 44.7547
Normalized [3H]-ADP uptake activity (IC50 curve) ([4]; external cold nucleotide 10 uM): 22.7468 and 19.9682 and 21.5397
Normalized [3H]-ADP uptake activity (IC50 curve) ([4]; external cold nucleotide 100 uM): 8.173 and 6.95 and 8.424
IC50 ([4]; wild-type SLC35B1 proteoliposomes): 1600 nM
IC50 [5]: 2770 ± 410 nM
[3H]ADP uptake in the presence of cold competitor nucleotide (individual replicates; no-competitor control about 100) [6]: -1.767 and -1.033 and 2.879 and 5.424 and 4.368 and 4.176

Nc1ncnc2c1ncn2[C@@H]1O[C@H](COP(=O)(O)OP(=O)(O)OP(=O)(O)O)[C@@H](O)[C@H]1O [ATP]
ΔTm, individual titrations (source data) [7]: 5.9
kcat of BiP [8]: 0.000217 s⁻¹
DTM (ΔTm with ATP) [9]: robust ATP binding
Concentration of maximal thermostabilization [10]: 1 mM
ΔTm (average melting temperature increase) ([2]; 1 mM nucleotide): 5.2 °C
GFP fluorescence after heating (source data Fig 1B) ([2]; temperature 40): 49.9464
ΔTm, individual titrations (source data) [11]: 0.15 and 0.2
ΔTm, individual titrations (source data) [12]: 6.34
Km [13]: 3 to 5 µM and 4 µM
Concentration-dependent ATP thermostabilization [14]: severely diminished
ΔTm, individual titrations (source data) [15]: 1.4
ΔTm, individual titrations (source data) [16]: 2.49
Concentration-dependent ATP thermostabilization [17]: no clear thermostabilization
Concentration-dependent ATP thermostabilization [18]: still able to interact with ATP
ΔTm at 1000 µM [19]: 1.17 °C
ΔTm, individual titrations (source data) [20]: 2.51
